Data reported in US11629333B2, “Gamma delta T cells and a method of augmenting the tumoricidal activity of the same” (Agency for Science, Technology and Research, priority 2017, dated 2023).

Tests used:
[1] = tested on: Human PBMCs; assay: Expansion of Vγ9Vδ2 T cells from PBMCs, cell frequencies by flow cytometry; format: cell-based
Source text: FIGS. 1A to 1D (collectively referred to as “FIG. 1”) show the characterization of the cells expanded with Zometa, OKT3 and gamma-irradiated K562 aAPCs. Human PBMCs were first expanded with Zometa for 7 days, followed by treatment with Zometa, OKT3 and gamma-irradiated K562 aAPCs for another 10 days. Frequencies of Vγ9Vδ2 T cells (FIG. 1A), NKG2D-positive cells (FIG. 1B), CD3-positive alpha beta T cells (FIG. 1C) and CD3-negative, CD56-positive NK cells (FIG. 1D) in PBMCs, on day 7 and day 17 analyzed by flow cytometry are shown. PBMC samples from 7 donors were tested and each sample is represented by one line.
Human PBMC were isolated from fresh buffy coat of healthy donors by density gradient centrifugation using Ficoll-Paque (GE Healthcare, Milwaukee, Wis.). Human myelogenous leukemia cell line K562 (ATCC) and a K562-based aAPC cell line genetically engineered for stable expression of EGFP, CD86, CD64 and 4-1BBL (Du et al., 2016) were cultured in IMDM (Lonza Biotech, Basel, Switzerland) supplemented with 10% FBS. Other tumor cell lines used in the present invention were cultured in DMEM supplemented with 10% FBS.
(§1) For Vγ9Vδ2 T cell activation and expansion, PBMCs were seeded at a density of 2E6 cells/ml in AIM-V (Life Technologies) supplemented with 5% human AB serum (Valley Biomedical, Winchester, Va.). Zometa (5 μM, Sigma Aldrich, St. Louis, Mo.) and IL-2 (300 IU/ml) were added on day 0, followed by adding 50 ng/ml anti-CD3 antibody (OKT3 clone, eBioscience, San Diego, Calif.), gamma irradiated K562 aAPCs at a 100:1 ratio, 300 IU/ml IL-2, and 5 μM Zometa from day 7 onwards. […] The culture medium was refreshed every 2 to 3 days. In other words, the cells were passaged every 2 to 3 days.

[2] = tested on: SW480 human colon carcinoma cells, HepG2 human hepatocarcinoma cells, U87 human glioblastoma cells and SKOV3 human ovarian cancer cells; assay: Delfia EuTDA cytotoxicity assay, tumor cells with or without Zometa pre-treatment; format: cell-based; conditions: 1 μM Zometa pre-treatment of tumor cells
Description: Target tumor cells tested were SW480 human colon carcinoma, HepG2 human hepatocarcinoma cells, U87 human glioblastoma cells and SKOV3 human ovarian cancer cells. Tumor cells were either pre-treated with 1 μM Zometa or without Zometa treatment. Effector used are indicated. Delfia EuTDA cytotoxicity assay (3 hours EuTDA culturing) was used to assess tumor cell lysis efficiency at an effector to target ratio of 10:1. The results of one representative experiment out of three are shown.
The cytolytic activity of CAR-modified Vγ9Vδ2 T cells was examined with a non-radioactive method (DELFIA EuTDA Cytotoxicity Reagents kit, PerkinElmer, MA). Time-resolved fluorescence was measured in Victor3 multilabel plate counter (PerkinElmer). The effector to target (E:T) ratios used ranged from 20:1 to 2.5:1. Control groups were set up to measure spontaneous release (only target cells added), maximum release (target cells added with 10 μl lysis buffer), and medium background (no cell added). Killing efficacy was calculated by using the following formula: […]
Zometa treatment was used because Zometa can increase intracellular levels of IPP, thereby increasing the sensitivity of tumor cells to Vγ9Vδ2 T cells.

[3] = tested on: CTLA-4, PD1, LAG3, TIGIT, TIM3, and BTLA; assay: Expression of co-inhibitory receptors on PBMCs and expanded cells by flow cytometry; format: cell-based, human
Source text: FIGS. 2A to 2F (collectively referred to as “FIG. 2”) show the expression of co-inhibitory receptors CTLA-4 (FIG. 2A), PD-1 (FIG. 2B), LAG-3 (FIG. 2C), TIGIT (FIG. 2D), TIM-3 (FIG. 2E) and BTLA (FIG. 2F) on PBMCs and the expanded cells. Human PBMCs were first expanded with Zometa for 7 days, followed by treatment with Zometa, OKT3 and gamma-irradiated K562 aAPCs for another 10 days. The expression frequencies of 6 co-inhibitory receptors on PBMCs and on the expanded cells collected on day 7 and day 17 analyzed by flow cytometry are shown. PBMC samples from 7 donors were tested and each sample is represented by one line.
as §1
In view of the important roles of co-inhibitory receptors in cancer therapy, the expression of six of them, namely, CTLA-4, PD1, LAG3, TIGIT, TIM3, and BTLA, on the Zometa-expanded Vγ9Vδ2 T cells was examined using flow cytometry (FIG. 2).

[4] = PBMCs treated with Zometa, day 7
[5] = 7 days after Zometa treatment, all 7 samples

O=P(O)(O)C(O)(Cn1ccnc1)P(=O)(O)O [Zometa, zoledronic acid] was tested. Which NKG2D-positive cell population ([1]; PBMCs treated with 5 μM Zometa, day 0 to day 7) did it give?
Its NKG2D-positive cell population is “increase”.

What about the “Vγ9Vδ2 T-cell population” value ([1]; PBMCs treated with 5 μM Zometa, day 7) of the same compound?
Its value is roughly 90%.

And the “proportion of NK cells” value [1, 4]?
The value was “less than 3%”.

What about the “proportion of αβ T cells” value [1, 4] of the same compound?
The value was “less than 10%”.

What about the “sensitivity of HepG2 cells towards Vγ9Vδ2 T cells” value ([2]; HepG2) of the same compound?
Its value is “not”.

What about the “sensitivity of SKOV3 cells towards Vγ9Vδ2 T cells” value ([2]; SKOV3) of the same compound?
Its value is “significantly increased”.

And the “sensitivity of SW480 cells towards Vγ9Vδ2 T cells” value ([2]; SW480)?
The value was “significantly increased”.

And the “sensitivity of U87 cells towards Vγ9Vδ2 T cells” value ([2]; U87)?
The value was “significantly increased”.

What about the CTLA-4-expressing cells [3, 5] of the same compound?
The CTLA-4-expressing cells was “significant increase”.

What about the LAG3-expressing cells [3, 5] of the same compound?
The LAG3-expressing cells was “significant increase”.

And the TIGIT-expressing cells [3, 5]?
The TIGIT-expressing cells was “significant increase”.

And the TIM3-expressing cells [3, 5]?
The TIM3-expressing cells was “significant increase”.

What about the “frequency of PD1-positive cells” value ([3]; 7 days after Zometa treatment, remaining samples (one sample increased, one decreased)) of the same compound?
Its value is “minor increase or no change”.

And the BTLA expression ([3]; Zometa treatment for 7 days)?
The BTLA expression was “reduced”.
